In patent US9334473B2, “Three dimensional cell culture compositions and methods of use” (priority 2012, dated 2016):

Tested on: human neutrophils
Experiment: Chemotaxis of neutrophils suspended inside G041 substrate in a gradient
Assay type: cell-based
Details: 45-minute video
From the text: For materials in the Examples 2-4, substrates were punched or cut into shapes, sterilized and used to setup gradients of one or more ingredients. In some tests, gradients were further applied to cells in culture. In other tests, suspension of uncultured cells was suspended inside the substrate to which a gradient was applied.
As shown in Example 9 (Brain Culture #5) cells survived without free (substrate-unbound) medium, if overlapped by another substrate with the embedded medium. Accordingly, molecule diffusion studies, and this included gradients formed in one or more substrates, were maintained for longer periods of time without significant gradient “dilution” (by otherwise present surrounding pool of medium) when applied to cells in culture (or to uncultured cells suspended inside the substrate) by way of a substrate overlap method. In short term studies in a humidified incubator, neutrophils were exposed to a gradient inside the substrate, and the substrate was not overlapped by another substrate, yet a significant fraction of cells taxed in a suitable gradient.

Substance: Interleukin 8: cytokine applied as a gradient to neutrophils
- Chemotaxis in applied gradient: Chemotaxis of human neutrophils
